Measurements from US8242144B2, “Stilbenes and chalcones for the prevention and treatment of cardiovascular diseases” (Resverlogix Corp., priority 2004, dated 2012).

Key:
human ApoA-I promoter [1] = assay: ApoA-I promoter induction in Caco-2 intestinal cells (pAI.474-Luc luciferase reporter); type: cell-based; settings: Caco-2 cells, luciferase activity vs untreated/control, average values at 15 μM, 48 hours incubation
Description: Briefly, the promoter region of the gene encoding human ApoA-I was isolated and ligated upstream of the firefly luciferase gene to construct the reporter plasmid pAI.474-Luc. This reporter plasmid and pRSV-β-galactosidase (as a control for transfection efficiency) were co-transfected to Caco-2 cells. The Caco-2 cells were then incubated in a MEM selection media containing 20% fetal calf serum supplemented with G418 (final concentration: 0.5 mg/mL, Gibco) to give established strains that stably express from the reporter gene. […] Cells were starved for 24 hrs in MEM selection media containing 0.5% FBS. Then, a solution of a compound of the invention in DMSO or other appropriate solvent was added to the wells at a final concentration of 0 to 100 μM in MEM selection media containing 0.5% FBS.
Measures of luciferase activity were normalized to lysate protein concentrations, measured using Bradford Reagent (BioRad Protein Assay reagent Cat#500-0006). The luciferase activity of cells treated with various concentrations of test compounds was compared to that of control sample (i.e., solvent without any compound of the present invention added) and untreated samples.

human ApoA-I promoter [2] = assay: ApoA-I promoter induction in HepG2 liver cells (pAI.474-Luc luciferase reporter); type: cell-based; settings: luciferase activity vs untreated/control, average values at 15 μM, 48 hours incubation
Description: This study determined whether compounds of the invention have an effect on ApoA-I promoter activity expression in HepG2 cells, a liver cell line. Cells were grown under conditions recommended by the ATCC and summarized by Wong.
The promoter region of the gene encoding human ApoA-I was isolated and ligated upstream the structure gene of firefly luciferase to construct a reporter plasmid (pAI.474-Luc). The reporter plasmid, along with pRSV-β-galactosidase (as a control for transfection efficiency) were co-transfected into HepG2 cells. The cells were then incubated in an MEM selection medium containing 20% fetal calf serum supplemented with G418 (final concentration: 0.5 mg/mL, Gibco) to give established strains that stably express from the reporter gene. The strains were seeded to a 6-well culture plates and incubated for 48 hours at 37° C. under 5% carbon dioxide. Cells were starved for 24 hrs in MEM selection media containing 0.5% FBS. Then, a solution of the compounds of the invention in DMSO (or other appropriate solvent) was added to the wells at a final concentration of 0 to 100 μM in MEM selection media containing 0.5% FBS.
After further incubation for 48 hours, the cells were harvested and lysed using Reporter Lysis Buffer (PROMEGA E3971), and 50 μL of luciferase assay reagent (PROMEGA E4550 Luciferase Reporter 1000 assay system) were added to measure luciferase activity with a luminometer (Fluoroskan Ascent FL from Thermo electron Corporation). Measures of luciferase activity were normalized to lysate protein concentrations, measured using Bradford Reagent (Biorad Protein Assay reagent Cat#500-0006).

[3] = Caco-2 permeability (in vitro Caco-2 intestinal transport model); type: in vitro ADME, human; settings: human, Caco-2
Description: (§1) The Caco-2 cell drug transport model is widely used for screening compounds in drug discovery to assess intestinal transport and predict absorption rates. […] Sun et al., “In vitro testing of drug absorption for drug ‘developability’ assessment: forming an interface between in vitro preclinical data and clinical outcome,” Curr. Opin. Drug Discov. Devel.

human ApoA-I promoter [4] = settings: Caco-2 cells, reported by Wong; cited from earlier work
Caco-2 cells = assay: Caco-2 permeability (in vitro Caco-2 intestinal transport model); type: in vitro ADME, human; settings: in vitro Caco-2 intestinal transport model
Description: as §1

| SMILES | ApoA-I Promoter Induction (human ApoA-I promoter [1]) | melting point [°C] | also measured |
| --- | --- | --- | --- |
| O=S(=O)(Nc1ccc(O)cc1)c1ccc(O)cc1 [Example 19, 4-Hydroxy-N-(4-hydroxyphenyl)-benzenesulfonamide] | increased |  |  |
| CN(C)C(=O)c1cc(O)ccc1/C=C/c1ccc(O)cc1 [Example 12, 5-Hydroxy-2-[2-(4-hydroxyphenyl)vinyl]-N,N-dimethyl-benzamide] | increased | 183.5 to 187.7 |  |
| COc1ccc(C(=O)/C=C/c2ccc(O)cc2O)cc1 [2,4-Dihydroxy-4′-methoxy-chalcone] | increased |  |  |
| O=[N+]([O-])c1cc(O)ccc1/C=C/c1ccc(O)cc1 [Example 6, 3-Nitro-4-[(E)-2-(4-hydroxyphenyl)-vinyl]phenol] | increased | 237 to 240 | ApoA-I Promoter Induction (human ApoA-I promoter [2]): increased; Papp [3]: 1.95 ×10⁻⁶ cm/s |
| COc1ccc(/C=C/C(=O)c2ccccc2)cc1 [4-Methoxy-chalcone] | increased |  |  |
| O=C(/C=C/c1ccc(O)cc1)c1ccccc1 [4-Hydroxy-chalcone] | increased |  |  |
| CCOC(=O)c1cc(/C=C/c2ccc(O)cc2)ccc1O [Example 7, (E)-Ethyl 2-hydroxy-5-(4-hydroxystyryl) benzoate] | increased | 269 to 271 |  |
| O=C(/C=C/c1ccc(O)cc1)c1ccc(O)cc1O [4,2′,4′-Trihydroxy-chalcone] | increased |  |  |
| Oc1ccc(/C=C/c2ccc(O)nc2)cc1 [Example 2, 5-[(E)-2-(4-Hydroxy-phenyl)-vinyl]-pyridin-2-ol] | increased |  |  |
| Oc1ccc(/C=C/c2cc(O)cc(O)c2)cc1 [resveratrol] |  |  | stimulation of ApoA-I promoter activity at 4, 8, 16 and 24 hours following administration (human ApoA-I promoter [4]): significant stimulation |
| Nc1cc(O)ccc1/C=C/c1ccc(O)cc1 [Example 10, 3-Amino-4-[(E)-2-(4-hydroxy-phenyl)vinyl]phenol] | increased | 229 to 232 |  |
| O=C(Oc1ccccn1)c1ccc(O)cc1 [Example 20, 4-Hydroxy-benzoic acid pyridin-2-yl ester] |  |  | Papp [3]: 2 ×10⁻⁶ cm/s |
| CCCO [Propanol, reference compound] |  |  | % Transported Paap (Caco-2 cells): 10.1 ×10⁻⁶ cm/s |
| Oc1ccc(/C=C/c2ccc(O)cc2)cc1 [4,4′-dihydroxy-stilbene] | increased |  | ApoA-I Promoter Induction (human ApoA-I promoter [2]): increased |
| Oc1ccc(CCc2ccc(O)cc2)cc1 [Example 17, 4-[4-Hydroxy-phenethyl]-phenol] | increased |  | ApoA-I Promoter Induction (human ApoA-I promoter [2]): increased |
| O=C(O)c1cc(/C=C/c2ccc(O)cc2)ccc1O [Example 5, 2-Hydroxy-5-[(E)-2-(4-hydroxyphenyl)vinyl]benzoic acid] | no | 241 to 243 |  |
| COc1cc(O)ccc1/C=C/c1ccc(O)cc1 [Example 3, 4-[(E)-2-(4-Hydroxy-phenyl)-vinyl]-3-methoxy-phenol] | increased | 192 to 194 | ApoA-I Promoter Induction (human ApoA-I promoter [2]): increased |
| Oc1ccc(/C=C/c2cc(O)cc(O)c2)cc1 [Example 1, Resveratrol] | increased |  | ApoA-I Promoter Induction (human ApoA-I promoter [2]): increased |
| CC(=O)Nc1cc(O)ccc1/C=C/c1ccc(O)cc1 [Example 11, N-{5-Hydroxy-2-[(E)-2-(4-hydroxyphenyl)vinyl]phenyl}-acetamide] |  | 227 to 229 |  |
| CS(=O)(=O)c1cc(O)ccc1/C=C/c1ccc(O)cc1 [Example 9, 4-[(E)-2-(4-Hydroxyphenyl)vinyl]-3-methanesulfonylphenol] |  | 244 to 245 |  |
| NC(=O)c1cc(/C=C/c2ccc(O)cc2)ccc1O [Example 8, (E)-2-Hydroxy-5-(4-hydroxystyryl)benzamide] | increased | 272 to 274 |  |
| OCc1cc(O)ccc1/C=C/c1ccc(O)cc1 [Example 4, 3-Hydroxymethyl-4-[(E)-2-(4-hydroxy-phenyl)-vinyl]-phenol] | increased | 223 to 225 | Papp [3]: 1.79 ×10⁻⁶ cm/s |
| Oc1ccc(/N=N/c2ccc(O)cc2)cc1 [Example 21, 4-(4-Hydroxy-phenyl)-azophenol] |  |  | Papp [3]: 8.73 ×10⁻⁶ cm/s |
